The supplement of paper PMC11061612

Legend:
Trametinib = compound: CC(=O)Nc1cccc(-n2c(=O)n(C3CC3)c(=O)c3c(Nc4ccc(I)cc4F)n(C)c(=O)c(C)c32)c1 [Trametinib]; conditions: max 1 µM
Method in brief: (§1)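 Viability was measured with CellTiter-Glo 2.0 luminescence after 72 hours of dosing at a final DMSO of typically 0.2%, and scaled between blank-well and DMSO-well means. Beforehand, cancer cell lines sat 24 hours at 37°C and 5% CO2 in 1536-well plates in 7.5 μl DMEM/F12 or RPMI with 10% FBS. A non-linear mixed effects model fitted two-parameter logistic curves to the dose responses. The single-agent IC50 comes from these fits.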

AZD1390 = compound: CC(C)n1c(=O)n(C)c2cnc3cc(F)c(-c4ccc(OCCCN5CCCCC5)nc4)cc3c21 [AZD1390]; conditions: max 0.3 µM
Method in brief: as §1

AZD5153 = compound: COc1nnc2ccc(N3CCC(c4ccc(OCCN5CCN(C)C(=O)[C@H]5C)cc4)CC3)nn12 [AZD5153]; conditions: max 1 µM
Method in brief: as §1

SG3199 = compound: CC1=CN2[C@@H](C1)C=NC3=CC(=C(C=C3C2=O)OC)OCCCCCOC4=C(C=C5C(=C4)N=C[C@@H]6CC(=CN6C5=O)C)OC [SG3199]; conditions: max 0.001 µM
Method in brief: as §1

Gefitinib = compound: COc1cc2ncnc(Nc3ccc(F)c(Cl)c3)c2cc1OCCCN1CCOCC1 [Gefitinib]; conditions: max 10 µM
Method in brief: as §1

AZD8186 = compound: C[C@@H](Nc1cc(F)cc(F)c1)c1cc(C(=O)N(C)C)cc2c(=O)cc(N3CCOCC3)oc12 [AZD8186]; conditions: max 3 µM
Method in brief: as §1

AZD0156 = compound: CN(C)CCCOc1ccc(-c2ccc3ncc4c(c3c2)n(C2CCOCC2)c(=O)n4C)cn1 [AZD0156]; conditions: max 3 µM
Method in brief: as §1

Capivasertib = compound: C1CN(CCC1(C(=O)N[C@@H](CCO)C2=CC=C(C=C2)Cl)N)C3=NC=NC4=C3C=CN4 [Capivasertib]; conditions: max 10 µM
Method in brief: as §1

Crizotinib = compound: C[C@@H](Oc1cc(-c2cnn(C3CCNCC3)c2)cnc1N)c1c(Cl)ccc(F)c1Cl [Crizotinib]; conditions: max 10 µM
Method in brief: as §1

Lapatinib = compound: CS(=O)(=O)CCNCc1ccc(-c2ccc3ncnc(Nc4ccc(OCc5cccc(F)c5)c(Cl)c4)c3c2)o1 [Lapatinib]; conditions: max 10 µM
Method in brief: as §1

Dasatinib = compound: CC1=C(C(=CC=C1)Cl)NC(=O)C2=CN=C(S2)NC3=CC(=NC(=N3)C)N4CCN(CC4)CCO [Dasatinib]; conditions: max 2 µM
Method in brief: as §1

Doxorubicin = compound: COc1cccc2c1C(=O)c1c(O)c3c(c(O)c1C2=O)C[C@@](O)(C(=O)CO)C[C@@H]3O[C@H]1C[C@H](N)[C@H](O)[C@H](C)O1 [Doxorubicin]; conditions: max 1 µM
Method in brief: as §1

AZD2811 = compound: CCN(CCO)CCCOc1ccc2c(Nc3cc(CC(=O)Nc4cccc(F)c4)[nH]n3)ncnc2c1 [AZD2811]; conditions: max 1 µM
Method in brief: as §1

AZD5991 = compound: Cc1c2c(nn1C)CSCc1cc(n(C)n1)CSc1cc(c3ccccc3c1)OCCCc1c(C(=O)O)n(C)c3c-2c(Cl)ccc13 [AZD5991]; conditions: max 1 µM
Method in brief: as §1

AZD4320 = compound: CN(CC[C@H](CSC1=CC=CC=C1)NC2=C(C=C(C=C2)S(=O)(=O)NC(=O)C3=CC=C(C=C3)N4CCC(CC4)[C@H](C5=CC=CC=C5C6=CC=C(C=C6)Cl)O)S(=O)(=O)C(F)(F)F)CCO [AZD4320]; conditions: max 1 µM
Method in brief: as §1

Savolitinib = compound: C[C@@H](c1ccc2nccn2c1)n1nnc2ncc(-c3cnn(C)c3)nc21 [Savolitinib]; conditions: max 1 µM
Method in brief: as §1

Olaparib = compound: O=C(c1cc(Cc2n[nH]c(=O)c3ccccc23)ccc1F)N1CCN(C(=O)C2CC2)CC1 [Olaparib]; conditions: max 10 µM
Method in brief: as §1

Prexasertib = compound: COc1cccc(OCCCN)c1-c1cc(Nc2cnc(C#N)cn2)n[nH]1 [Prexasertib]; conditions: max 1 µM
Method in brief: as §1

Palbociclib = compound: CC(=O)c1c(C)c2cnc(Nc3ccc(N4CCNCC4)cn3)nc2n(C2CCCC2)c1=O [Palbociclib]; conditions: max 10 µM
Method in brief: as §1

Taselisib = compound: Cc1nc(-c2cn3c(n2)-c2ccc(-c4cnn(C(C)(C)C(N)=O)c4)cc2OCC3)n(C(C)C)n1 [Taselisib]; conditions: max 10 µM
Method in brief: as §1

Selumetinib = compound: Cn1cnc2c(F)c(Nc3ccc(Br)cc3Cl)c(C(=O)NOCCO)cc21 [Selumetinib]; conditions: max 10 µM
Method in brief: as §1

SN-38 = compound: CCc1c2c(nc3ccc(O)cc13)-c1cc3c(c(=O)n1C2)COC(=O)[C@]3(O)CC [SN-38]; conditions: max 0.3 µM
Method in brief: as §1

Alisertib = compound: COc1cc(Nc2ncc3c(n2)-c2ccc(Cl)cc2C(c2c(F)cccc2OC)=NC3)ccc1C(=O)O [Alisertib]; conditions: max 10 µM
Method in brief: as §1

AZD1775 = compound: C=CCn1c(=O)c2cnc(Nc3ccc(N4CCN(C)CC4)cc3)nc2n1-c1cccc(C(C)(C)O)n1 [AZD1775]; conditions: max 3 µM
Method in brief: as §1

AZD7648 = compound: Cc1cc2ncnn2cc1Nc1ncc2c(n1)n(C1CCOCC1)c(=O)n2C [AZD7648]; conditions: max 10 µM
Method in brief: as §1

AZD6738 = compound: C[C@@H]1COCCN1C2=NC(=NC(=C2)C3(CC3)[S@](=N)(=O)C)C4=C5C=CNC5=NC=C4 [AZD6738]; conditions: max 10 µM
Method in brief: as §1

Venetoclax = compound: CC1(C)CCC(CN2CCN(c3ccc(C(=O)NS(=O)(=O)c4ccc(NCC5CCOCC5)c([N+](=O)[O-])c4)c(Oc4cnc5[nH]ccc5c4)c3)CC2)=C(c2ccc(Cl)cc2)C1 [Venetoclax]; conditions: max 1 µM
Method in brief: as §1

Row | Cell Line | IC50, cell viability 72 h (Trametinib) [µM] | IC50, cell viability 72 h (AZD1390) [µM] | IC50, cell viability 72 h (AZD5153) [µM] | IC50, cell viability 72 h (SG3199) [µM] | IC50, cell viability 72 h (Gefitinib) [µM] | IC50, cell viability 72 h (AZD8186) [µM] | IC50, cell viability 72 h (AZD0156) [µM] | IC50, cell viability 72 h (Capivasertib) [µM] | IC50, cell viability 72 h (Crizotinib) [µM] | IC50, cell viability 72 h (Lapatinib) [µM] | IC50, cell viability 72 h (Dasatinib) [µM] | IC50, cell viability 72 h (Doxorubicin) [µM] | IC50, cell viability 72 h (AZD2811) [µM] | IC50, cell viability 72 h (AZD5991) [µM] | IC50, cell viability 72 h (AZD4320) [µM] | IC50, cell viability 72 h (Savolitinib) [µM] | IC50, cell viability 72 h (Olaparib) [µM] | IC50, cell viability 72 h (Prexasertib) [µM] | IC50, cell viability 72 h (Palbociclib) [µM] | IC50, cell viability 72 h (Taselisib) [µM] | IC50, cell viability 72 h (Selumetinib) [µM] | IC50, cell viability 72 h (SN-38) [µM] | IC50, cell viability 72 h (Alisertib) [µM] | IC50, cell viability 72 h (AZD1775) [µM] | IC50, cell viability 72 h (AZD7648) [µM] | IC50, cell viability 72 h (AZD6738) [µM] | IC50, cell viability 72 h (Venetoclax) [µM]
1 | KM12 (Colorectal Carcinoma) | 0.0356 | > 0.3 | 0.287 | > 0.001 | > 10 | > 3 | > 3 | 2.28 | 0.271 | > 10 | > 2 | 0.357 | > 1 | > 1 | > 1 | > 1 | > 10 | 0.0666 | 1.17 | 7.18 | 1.3 | 0.0908 | 1.11 | 0.454 | > 10 | 5.54 | > 1
2 | KYSE-180 (Esophageal Squamous Cell Carcinoma) | > 1 | > 0.3 | > 1 | > 0.001 | > 10 | > 3 | > 3 | > 10 | > 10 | > 10 | 1.73 | > 1 | > 1 | 0.642 | > 1 | > 1 | > 10 | 0.0223 | > 10 | 4.52 | > 10 | > 0.3 | > 10 | 0.44 | > 10 | 5.36 | > 1
3 | LN-18 (Glioblastoma) | > 1 | > 0.3 | 0.342 | > 0.001 | > 10 | 2.53 | > 3 | > 10 | > 10 | 9.52 | > 2 | > 1 | > 1 | > 1 | > 1 | > 1 | > 10 | 0.209 | > 10 | 5.68 | > 10 | 0.138 | 1.4 | > 3 | > 10 | 8.83 | > 1
4 | MEL-JUSO (Melanoma) | 0.43 | > 0.3 | > 1 | > 0.001 | > 10 | > 3 | > 3 | > 10 | > 10 | > 10 | > 2 | > 1 | > 1 | > 1 | > 1 | > 1 | > 10 | 0.125 | > 10 | > 10 | > 10 | > 0.3 | > 10 | > 3 | > 10 | > 10 | > 1
